# Results: US11826341B2, “Baicalein analogs for use in neuroprotection and regulation of immune reactivity” (THE HONG KONG POLYTECHNIC UNIVERSITY, priority 2021, dated 2023)
# “Also recorded” adds a separate entry of the source.
# Legend:
# RGCs = test: RGC survival in vivo after retinal ischemia/reperfusion injury (Brn-3a whole-mount retina); design: species or system mice; conditions: 4 weeks after ischemia/reperfusion, injured control 2,314+/−383, uninjured 3,901+/−145
# Description: (§1) (A) representative photomicrographs showing Brn-3a staining a whole-mounted retina from four weeks after ischemia injury in vehicle, 10 μM or 100 μM baicalein group; (B) bar graph quantifying the number of survived RGCs in 4 weeks post-injury retina from vehicle, 10 μM or 100 μM baicalein group; (C) bar graph the number of live primary RGC survival rate in vehicle, 1 μM baicalein group. Bar=20 μm. *P<0.05; **P<0.01 value was statistically analyzed by one-way ANOVA.
# (§2) Example 1—Baicalein improves RGCs survival in vitro culture or after ischemia/reperfusion damages. To study the effect of baicalein on retinal neurons, we carried out in vitro RGC cultures and in vivo studies of RGCs survival in experimental models of retinal ischemia/reperfusion injury. RGC density dropped from 3,901+/−145 cells/mm^2 to 2,314+/−383 cells/mm^2 at 4 weeks following ischemia/reperfusion injury. […] Moreover, purified mouse RGCs were cultured with vehicle, 1 μM or 10 μM Baicalein for 48 hours.
# purified mouse RGCs = test: Purified RGC culture survival; format: cell-based; conditions: 48 hours, vehicle 35.8+/−1.3%
# Description: as §1, §2
# [1] = tested on: ischemia/reperfusion mice; test: Optomotor response (OMR) after ischemia/reperfusion injury; format: in vivo
# Description: (K) Graphs showing contrast sensitivity (CS) and (L) visual acuity (VA) of optomotor response (OMR) in mice received ischemia/reperfusion and intravitreal injections of vehicle, 10 μM or 100 μM baicalein. Error bar=SEM. *P<0.05; **P<0.01.
# CD4+ T cells = test: Flow cytometry of CD4+ T cells in retina and superior cervical lymph nodes after ischemia/reperfusion; format: in vivo, mice; conditions: 100 μM
# Description: (A) 1 wk representative flow images and (B) quantification of the CD4+ cell percentage in the retina at 1 wk and 4 wks timepoint. Flow cytometry quantification of frequencies of subsets of CD4+ T cells in the draining LNs of the eye taken from mice at 1 wk (C) and 4 wks (D) after acute ischemic injury in vehicle or 100 μM baicalein given group. Shown were percentages of CD4+ T cells that expressed IFN-γ, IL-17, IL-4, IL-10 or TGF-β among fresh-isolated total LN lymphocytes. […] Th1, Th2, Th17, and Treg cells, again were divided based on the expression profile of hallmark cytokines: IFN-γ (TH1), IL-4 (TH2), IL-10 (TH2), IL-17 (TH17), and TGF-β (Treg)^16.
# retinal microglia = test: qPCR of activated microglia markers and pro-inflammatory cytokines in retina after ischemia/reperfusion; format: in vivo, mice; conditions: 100 μM
# Description: Quantifications of qPCR assay showing the relative expression of (B) activated microglia markers and (C) pro-inflammatory cytokines in normal mice, and mice at 1 wk and 4 wks post ischemia/reperfusion retina from vehicle or 100 μM Ba given group. Error bar-SEM. *P<0.05.
# [2] = tested on: human microglia HMC3 cell line; test: PI3K and NFkB immunostaining in LPS and ATP challenged microglia; format: cell-based; conditions: 10 μM; LPS and ATP challenged human microglial cells
# Description: (§3) FIG. 5 Baicalein suppresses PI3K and NFkB pathway in both primary mouse brain microglia and human microglia HMC3 cell line in vitro. (A) Representative bright field images of primary mouse brain microglia and images immunostained with DAPI (blue), p85 PI3K (red) and p65 NFkB (green) antibody in LPS and ATP plus vehicle or 10 μM baicalein delivered group respectively. Scale bar=40 μm (B) Representative human microglia images immunostained with DAPI (blue), p85 PI3K (red) and p65 NFkB (green) antibody in LPS and ATP plus vehicle or 10 μM baicalein delivered group respectively. Error bar=SEM. *P<0.05; **P<0.01. Scale bar=100 μm.
# (§4) To further understand if the effects of suppressing microglia activation and cytokines release are related with NFkB and PI3K pathway, we examine the performance of baicalein in primary mouse microglia and human microglial cell line HMC-3.
# [3] = tested on: primary mouse brain microglia; test: as above; format: cell-based; conditions: 10 μM; LPS and ATP challenged mouse microglial cells
# Description: as §3, §4
# HMC-3 = test: Intracellular calcium after ATP stimulation; format: cell-based, human; conditions: 10 μM pretreatment 24 hrs; 50 μM ATP stimulation
# Description: (A) Changes of [Ca^2+]i in cultured HMC-3 with pretreatment of vehicle or 10 μM baicalein for 24 hrs. […] (B) Quantification of [Ca^2]i levels in different treatment groups after stimulation (n=6 cultures/group, and 10-20 neurons were recorded from each group). […] To verify the effect of baicalein on the influence of microglia state, the measurement of intracellular calcium concentration [Ca2+]I was applied. After adding 50 μM ATP to microglial cells, the influx of [Ca2+]I was triggered immediately in naïve group.
# [4] = tested on: human microglia HMC3 cell line; test: Cytokine array of culture media after LPS and ATP challenge; format: cell-based; conditions: 1 μM or 10 μM for 42 hours after 6 hours LPS and 30 mins ATP
# Description: (§5) (A) Quantification the averaged pixel density of selected cytokines produced by human microglia cell line HMC-3 culture. […] Error bar=SEM. *P<0.05; **P<0.01. Scale bar=100 μM. One-way ANOVA. […] After 6 hours LPS stimulation and additional 30 mins ATP challenge, vehicle, 1 μM or 10 μM baicalein was delivered to the culture media for an additional 42 hours. The culture media from different groups was collected for the cytokine array, while the cells were lysed for qPCR to identify the mRNA level.
# [5] = tested on: human microglia HMC3 cell line; test: qPCR of pro-inflammatory genes after LPS and ATP challenge; format: cell-based; conditions: 1 μM or 10 μM for 42 hours after LPS and ATP
# Description: as §5
# [6] = tested on: ischemia/reperfusion mice; conditions: mouse, in vivo
# Description: The results of electroretinogram (ERG) and optomotor response (OMR) measurements were used to determine the changes of visual functions after ischemia/reperfusion damages. For ERG measurement, positive scotopic threshold response (pSTR), scotopic a- and b-wave, M-cone and 10 Hz flicker amplitudes were obtained from the three experimental groups (i.e. vehicle, 10 μM and 100 μM baicalein) at baseline, 1 wk, 2 wks and 4 wks post-ischemia/reperfusion injury (FIGS. 2A, 2B, 2C, 2D, 2E, 2F, 2G, 2H, 2I and 2J). […] At the same time, the electrical signals from M-cone and 10 Hz-flicker stimulus were also captured (FIGS. 2F, 2G, 2H, 2I and 2J).
# [7] = 100 μM weekly intravitreal, 4 weeks after ischemia
compound,measurement,setting,value
"O=c1cc(-c2ccccc2)oc2cc(O)c(O)c(O)c12 [baicalein, 5,6,7-trihydroxyflavone]",RGC density,RGCs; 10 μM intravitreal injection day 1 after injury,"3,480+/−197 cells/mm^2"
same,RGC density,RGCs; 100 μM intravitreal injection day 1 after injury,"3,604+/−137 cells/mm^2"
same,RGC survival rate,purified mouse RGCs; 1 μM,42.0+/−1.2%
same,RGC survival rate,purified mouse RGCs; 10 μM,41.1+/−1.9%
same,visual acuity,"[1]; 10 μM intravitreal, after ischemia injury",improvement
same,contrast sensitivity,[1]; [7],improved
same,visual acuity,[1]; [7],improved
same,IFNγ (TH1) CD4+ T cells in superior cervical LNs,CD4+ T cells; 1 and 4 weeks after ischemic injury,significantly inhibited
same,IL-10 (TH2) expression in superior cervical LNs,CD4+ T cells; 4-week post-injury,lower than that of vehicle-treated
same,IL-4 (TH2) level in superior cervical LNs,CD4+ T cells; 4-week time point,lower than vehicle group
same,number of infiltrated T cells in the retina,CD4+ T cells; after ischemia/reperfusion injury,decrease
same,"mRNA levels of activated microglia markers Iba-1, YM-1 and Nox2",retinal microglia; retina 1- and 4-week post injury,relatively low mRNA levels
same,"pro-inflammatory cytokines CCL2, IL-1α (qPCR)","retinal microglia; retina, vs vehicle group",down-regulated
same,PI3K and NFkB pathway activation,[2],effectively reduce
same,PI3K and NFkB pathway activation,[3],effectively reduce
same,elevation of intracellular calcium [Ca2+]i,HMC-3,delayed Ca^2+ influx with reduced magnitude; also recorded: suppressed effectively
same,"release of pro-inflammatory factors (CCL2, Cxcl10, IL-1α, IL-10, TNFα, etc)",[4],largely draw the release of pro-inflammatory factors to the resting level
same,IL-6 expression level,[5],significant suppression
same,expression of IL-10 and TNFα,[5]; vs vehicle group,dramatically dropped
same,mRNA fold changes of IL-1β and TNFα,[5]; vs vehicle group,consistent anti-inflammation effects
same,Scotopic ERG a wave and b wave (bipolar cells),[6],protective effects
